Data from PMC5218480 (PLoS ONE, 2017).

System: MV-4-11 cells
Assay: Gene expression microarray analysis (Affymetrix PrimeView) and GSEA
Format: cell-based, human
Design: RFU PODN (11730768_x_at) / Fold change /veh PODN (11730768_x_at) / RFU LINC00158 (11744669_a_at) / Fold change /veh LINC00158 (11744669_a_at) / RFU DUSP10 (11751237_a_at) / Fold change /veh DUSP10 (11751237_a_at) / RFU ID3 (11757404_x_at) / Fold change /veh ID3 (11757404_x_at) / RFU PLEKHG5 (11737974_s_at) / Fold change /veh PLEKHG5 (11737974_s_at) / RFU LRRC4B (11730491_at) / Fold change /veh LRRC4B (11730491_at) / RFU GIMAP4 (11747438_a_at) / Fold change /veh GIMAP4 (11747438_a_at) / RFU KRT8 (11758183_x_at) / Fold change /veh KRT8 (11758183_x_at) / RFU CNN1 (11734310_a_at) / Fold change /veh CNN1 (11734310_a_at) / RFU VPS37D (11726825_at) / Fold change /veh VPS37D (11726825_at) / RFU C10orf10 (11716522_x_at) / Fold change /veh C10orf10 (11716522_x_at) / RFU KIR2DL2 /// KIR2DL4 /// KIR2DL5A /// KIR2DL5B /// KIR2DS1 /// KIR2DS2 /// KIR2DS3 /// KIR2DS4 /// KIR3DL3 /// KIR3DL3 /// KIR3DS1 (11738374_at) / Fold change /veh KIR2DL2 /// KIR2DL4 /// KIR2DL5A /// KIR2DL5B /// KIR2DS1 /// KIR2DS2 /// KIR2DS3 /// KIR2DS4 /// KIR3DL3 /// KIR3DL3 /// KIR3DS1 (11738374_at) / RFU C1QL1 (11718748_at) / Fold change /veh C1QL1 (11718748_at) / RFU TMPRSS4 (11747572_a_at) / Fold change /veh TMPRSS4 (11747572_a_at) / RFU HAMP (11756126_x_at) / Fold change /veh HAMP (11756126_x_at) / RFU RNFT2 (11725882_a_at) / Fold change /veh RNFT2 (11725882_a_at) / RFU NR4A2 (11747474_a_at) / Fold change /veh NR4A2 (11747474_a_at) / RFU ABCC12 (11746883_a_at) / Fold change /veh ABCC12 (11746883_a_at) / RFU TMEM136 (11760407_x_at) / Fold change /veh TMEM136 (11760407_x_at) / RFU CLDN22 /// WWC2 (11732394_at) / Fold change /veh CLDN22 /// WWC2 (11732394_at) / RFU HLA-DPB1 (11760878_x_at) / Fold change /veh HLA-DPB1 (11760878_x_at) / RFU SPINT1 (11716480_a_at) / Fold change /veh SPINT1 (11716480_a_at) / RFU GAP43 (11754022_s_at) / Fold change /veh GAP43 (11754022_s_at) / RFU A4GNT (11735810_at) / Fold change /veh A4GNT (11735810_at) / RFU PRB3 (11715151_x_at) / Fold change /veh PRB3 (11715151_x_at) / RFU TUBB4B (11761932_at) / Fold change /veh TUBB4B (11761932_at) / RFU CAPN14 (11732068_a_at) / Fold change /veh CAPN14 (11732068_a_at) / RFU TMCC2 (11721928_a_at) / Fold change /veh TMCC2 (11721928_a_at) / RFU IRGQ (11745062_a_at) / Fold change /veh IRGQ (11745062_a_at) / RFU FAM174B (11720279_a_at) / Fold change /veh FAM174B (11720279_a_at) / RFU TMPRSS4 (11748680_a_at) / Fold change /veh TMPRSS4 (11748680_a_at) / RFU FAM212B (11763350_a_at) / Fold change /veh FAM212B (11763350_a_at) / RFU PLEKHG5 (11743358_a_at) / Fold change /veh PLEKHG5 (11743358_a_at) / RFU ZSCAN30 (11745921_a_at) / Fold change /veh ZSCAN30 (11745921_a_at) / RFU CMKLR1 (11741424_a_at) / Fold change /veh CMKLR1 (11741424_a_at) / RFU LOC101060620 /// MAPK8IP1 (11723275_at) / Fold change /veh LOC101060620 /// MAPK8IP1 (11723275_at) / RFU SPTSSB (11747773_x_at) / Fold change /veh SPTSSB (11747773_x_at) / RFU PRSS12 (11739890_at) / Fold change /veh PRSS12 (11739890_at) / RFU BIN1 (11741810_x_at) / Fold change /veh BIN1 (11741810_x_at) / RFU WNT11 (11732464_a_at) / Fold change /veh WNT11 (11732464_a_at) / RFU C10orf10 (11716521_a_at) / Fold change /veh C10orf10 (11716521_a_at) / RFU C5orf56 (11738089_at) / Fold change /veh C5orf56 (11738089_at) / RFU CYB561 (11721691_x_at) / Fold change /veh CYB561 (11721691_x_at) / RFU ANKRD19P (11752326_a_at) / Fold change /veh ANKRD19P (11752326_a_at) / RFU OR2T12 /// OR2T33 /// OR2T8 (11738714_s_at) / Fold change /veh OR2T12 /// OR2T33 /// OR2T8 (11738714_s_at) / RFU VCAN (11748164_a_at) / Fold change /veh VCAN (11748164_a_at) / RFU JSRP1 (11732532_at) / Fold change /veh JSRP1 (11732532_at) / RFU KRTAP10-11 (11738290_x_at) / Fold change /veh KRTAP10-11 (11738290_x_at) / RFU MYO3A (11730013_a_at) / Fold change /veh MYO3A (11730013_a_at) / RFU EBF3 (11725865_a_at) / Fold change /veh EBF3 (11725865_a_at) / RFU CAMK2N1 (11719241_x_at) / Fold change /veh CAMK2N1 (11719241_x_at) / RFU C5orf56 (11738088_a_at) / Fold change /veh C5orf56 (11738088_a_at) / RFU OLFML3 (11715873_a_at) / Fold change /veh OLFML3 (11715873_a_at) / RFU LOC100653217 /// NTM (11731650_a_at) / Fold change /veh LOC100653217 /// NTM (11731650_a_at) / RFU MAPK11 (11762145_a_at) / Fold change /veh MAPK11 (11762145_a_at) / RFU FIZ1 (11724087_x_at) / Fold change /veh FIZ1 (11724087_x_at) / RFU OASL (11726364_x_at) / Fold change /veh OASL (11726364_x_at) / RFU SOX15 (11748057_x_at) / Fold change /veh SOX15 (11748057_x_at) / RFU CD79A (11719716_a_at) / Fold change /veh CD79A (11719716_a_at) / RFU HIST1H1D (11736915_at) / Fold change /veh HIST1H1D (11736915_at) / RFU CASKIN2 (11723855_a_at) / Fold change /veh CASKIN2 (11723855_a_at) / RFU LOC730098 (11760151_x_at) / Fold change /veh LOC730098 (11760151_x_at) / RFU OR4N2 (11742367_at) / Fold change /veh OR4N2 (11742367_at) / RFU PRRT2 (11749266_a_at) / Fold change /veh PRRT2 (11749266_a_at) / RFU SNX32 (11753110_a_at) / Fold change /veh SNX32 (11753110_a_at) / RFU CDHR5 (11726645_a_at) / Fold change /veh CDHR5 (11726645_a_at) / RFU RCAN1 (11760418_a_at) / Fold change /veh RCAN1 (11760418_a_at) / RFU FAM167A (11723789_a_at) / Fold change /veh FAM167A (11723789_a_at) / RFU FAM26E (11764081_at) / Fold change /veh FAM26E (11764081_at) / RFU ISYNA1 (11749810_s_at) / Fold change /veh ISYNA1 (11749810_s_at) / RFU ACY1 (11761880_at) / Fold change /veh ACY1 (11761880_at) / RFU 11764098_at / Fold change /veh 11764098_at / RFU SAMD14 (11745864_x_at) / Fold change /veh SAMD14 (11745864_x_at) / RFU NPB (11741838_a_at) / Fold change /veh NPB (11741838_a_at) / RFU TMPRSS6 (11731388_a_at) / Fold change /veh TMPRSS6 (11731388_a_at) / RFU KRTAP10-2 (11738614_at) / Fold change /veh KRTAP10-2 (11738614_at) / RFU ARHGAP8 /// PRR5-ARHGAP8 (11727945_x_at) / Fold change /veh ARHGAP8 /// PRR5-ARHGAP8 (11727945_x_at) / RFU KRTAP5-7 /// NADSYN1 (11734609_at) / Fold change /veh KRTAP5-7 /// NADSYN1 (11734609_at) / RFU RASL12 (11751679_a_at) / Fold change /veh RASL12 (11751679_a_at) / RFU CDKN2B (11736163_a_at) / Fold change /veh CDKN2B (11736163_a_at) / RFU PRF1 (11729649_at) / Fold change /veh PRF1 (11729649_at) / RFU, ZNF638 /// ZNF638-IT1 / Fold change vs veh, ZNF638 /// ZNF638-IT1 / RFU, PANK3 / Fold change vs veh, PANK3 / RFU, SH3YL1 / Fold change vs veh, SH3YL1 / RFU, ZEB2 / Fold change vs veh, ZEB2 / RFU, NRIP1 / Fold change vs veh, NRIP1 / RFU, PTTG1IP / Fold change vs veh, PTTG1IP / RFU, CAPN2 / Fold change vs veh, CAPN2 / RFU, MED14 / Fold change vs veh, MED14 / RFU, SNORA58 / Fold change vs veh, SNORA58 / RFU, C1orf63 / Fold change vs veh, C1orf63 / RFU, LRRFIP1 / Fold change vs veh, LRRFIP1 / RFU, NDUFAF7 / Fold change vs veh, NDUFAF7 / RFU, SLC12A2 / Fold change vs veh, SLC12A2 / RFU, IBTK / Fold change vs veh, IBTK / RFU, ESF1 / Fold change vs veh, ESF1 / Fold change vs veh, TMEM50B / RFU, TAOK1 / Fold change vs veh, TAOK1 / RFU, ACBD3 / Fold change vs veh, ACBD3 / RFU, TMA16 / Fold change vs veh, TMA16 / RFU, RWDD3 / Fold change vs veh, RWDD3 / RFU, BCAT1 / Fold change vs veh, BCAT1 / RFU, EDEM3 / Fold change vs veh, EDEM3 / RFU, TMEM33 / Fold change vs veh, TMEM33 / RFU, WDR75 / Fold change vs veh, WDR75 / RFU, AHCTF1 / Fold change vs veh, AHCTF1 / RFU, TFRC / Fold change vs veh, TFRC / RFU, ZDHHC17 / Fold change vs veh, ZDHHC17 / RFU, NOM1 / Fold change vs veh, NOM1 / RFU, ARL8B / Fold change vs veh, ARL8B / RFU, ZBTB11 / Fold change vs veh, ZBTB11 / RFU, TAMM41 / Fold change vs veh, TAMM41 / RFU, KIAA1704 /// LOC100996395 / Fold change vs veh, KIAA1704 /// LOC100996395 / RFU, ING1 / Fold change vs veh, ING1 / RFU, TRMT61B / Fold change vs veh, TRMT61B / RFU, FUBP3 / Fold change vs veh, FUBP3 / RFU, TP53 / Fold change vs veh, TP53 / RFU, TNKS2 / Fold change vs veh, TNKS2 / RFU, ZFP14 / Fold change vs veh, ZFP14 / RFU, ACTR2 / Fold change vs veh, ACTR2 / RFU, PPP3R1 / Fold change vs veh, PPP3R1 / RFU, PIK3R1 / Fold change vs veh, PIK3R1 / RFU, HNRNPA1 / Fold change vs veh, HNRNPA1 / RFU, RNF170 / Fold change vs veh, RNF170 / RFU, ZNF28 / Fold change vs veh, ZNF28 / RFU, RNGTT / Fold change vs veh, RNGTT / RFU, OGT / Fold change vs veh, OGT / RFU, BRD1 / Fold change vs veh, BRD1 / RFU, MARS / Fold change vs veh, MARS / RFU, ZNF655 / Fold change vs veh, ZNF655 / RFU, FAHD1 / Fold change vs veh, FAHD1 / RFU, BDP1 / Fold change vs veh, BDP1 / RFU, LRRCC1 / Fold change vs veh, LRRCC1 / RFU, ARID1A / Fold change vs veh, ARID1A / RFU, ZNF146 / Fold change vs veh, ZNF146 / RFU, ZNF330 / Fold change vs veh, ZNF330 / RFU, GPN3 / Fold change vs veh, GPN3 / RFU, C9orf123 / Fold change vs veh, C9orf123 / RFU, N4BP2L2 / Fold change vs veh, N4BP2L2 / RFU, ARFIP1 / Fold change vs veh, ARFIP1 / RFU, FAM179B / Fold change vs veh, FAM179B / RFU, BCL10 / Fold change vs veh, BCL10 / RFU, UHRF1BP1L / Fold change vs veh, UHRF1BP1L / RFU, BET1 / Fold change vs veh, BET1 / RFU, CNOT2 / Fold change vs veh, CNOT2 / RFU, ZNF268 / Fold change vs veh, ZNF268 / Fold change vs veh, ZNF507 / RFU, DGCR2 / Fold change vs veh, DGCR2 / RFU, WDSUB1 / Fold change vs veh, WDSUB1 / Fold change vs veh, HSP90B1 /// MIR3652 / RFU, ADSS / Fold change vs veh, ADSS / RFU, GK / Fold change vs veh, GK / RFU, ZNF148 / Fold change vs veh, ZNF148 / RFU, TAF9 / Fold change vs veh, TAF9 / RFU, SLC1A5 / Fold change vs veh, SLC1A5 / RFU, SLMO2 / Fold change vs veh, SLMO2 / RFU, ABCC4 / Fold change vs veh, ABCC4 / RFU, LOC101060439 /// RAP1B / Fold change vs veh, LOC101060439 /// RAP1B / RFU, RFX7 / Fold change vs veh, RFX7 / RFU, GTPBP10 / Fold change vs veh, GTPBP10 / RFU, CNEP1R1 / Fold change vs veh, CNEP1R1 / RFU, BIVM-ERCC5 /// ERCC5 / Fold change vs veh, BIVM-ERCC5 /// ERCC5 / RFU, ILF3 / Fold change vs veh, ILF3 / RFU 11762660_at / Fold change /veh 11762660_at / RFU VCAN (11757783_s_at) / Fold change /veh VCAN (11757783_s_at) / RFU DDX43 (11728927_at) / Fold change /veh DDX43 (11728927_at) / RFU KRT8 (11758188_x_at) / Fold change /veh KRT8 (11758188_x_at) / RFU NKD1 (11759106_at) / Fold change /veh NKD1 (11759106_at) / RFU SRD5A1 (11742802_a_at) / Fold change /veh SRD5A1 (11742802_a_at) / RFU TPSAB1 /// TPSB2 (11721975_s_at) / Fold change /veh TPSAB1 /// TPSB2 (11721975_s_at) / RFU GSTM3 (11746129_a_at) / Fold change /veh GSTM3 (11746129_a_at) / RFU IL23R (11737362_x_at) / Fold change /veh IL23R (11737362_x_at) / RFU TMEM51 (11727254_a_at) / Fold change /veh TMEM51 (11727254_a_at) / RFU PIWIL2 (11732686_x_at) / Fold change /veh PIWIL2 (11732686_x_at) / RFU ORM1 (11744905_x_at) / Fold change /veh ORM1 (11744905_x_at) / RFU CCDC152 (11743942_at) / Fold change /veh CCDC152 (11743942_at) / RFU ECM1 (11717891_a_at) / Fold change /veh ECM1 (11717891_a_at) / RFU IL23R (11748794_a_at) / Fold change /veh IL23R (11748794_a_at) / RFU TNFAIP8L3 (11732012_x_at) / Fold change /veh TNFAIP8L3 (11732012_x_at) / RFU MBOAT4 (11741988_at) / Fold change /veh MBOAT4 (11741988_at) / RFU 11764193_at / Fold change /veh 11764193_at / RFU TMEM53 (11763286_at) / Fold change /veh TMEM53 (11763286_at) / RFU MAGEB2 (11727129_at) / Fold change /veh MAGEB2 (11727129_at) / RFU TMEM200A (11744735_a_at) / Fold change /veh TMEM200A (11744735_a_at) / RFU CCDC152 (11751479_a_at) / Fold change /veh CCDC152 (11751479_a_at) / RFU FAM211A (11726209_a_at) / Fold change /veh FAM211A (11726209_a_at) / RFU RGS16 (11746705_a_at) / Fold change /veh RGS16 (11746705_a_at) / RFU VCAN (11755009_s_at) / Fold change /veh VCAN (11755009_s_at) / RFU RHOB (11743442_s_at) / Fold change /veh RHOB (11743442_s_at) / RFU RGS16 (11720943_a_at) / Fold change /veh RGS16 (11720943_a_at) / RFU RGS16 (11720944_at) / Fold change /veh RGS16 (11720944_at) / RFU, VPS4B / Fold change vs veh, VPS4B / RFU, CREB1 / Fold change vs veh, CREB1 / RFU, DNAJC13 / Fold change vs veh, DNAJC13 / RFU, GNAQ / Fold change vs veh, GNAQ / RFU, CDK5R1 / Fold change vs veh, CDK5R1 / RFU, ZRANB3 / Fold change vs veh, ZRANB3 / RFU, CUL4A / Fold change vs veh, CUL4A / RFU, CCNY / Fold change vs veh, CCNY / RFU, UFL1 / Fold change vs veh, UFL1 / RFU, COG3 / Fold change vs veh, COG3 / RFU, DIAPH2 / Fold change vs veh, DIAPH2 / RFU, SKA2 / Fold change vs veh, SKA2 / RFU, AFF3 / Fold change vs veh, AFF3 / RFU, LMF1 / Fold change vs veh, LMF1 / RFU, IPO11 / Fold change vs veh, IPO11 / RFU, DFFB / Fold change vs veh, DFFB / RFU, FOXP1 / Fold change vs veh, FOXP1 / RFU, CARD8 / Fold change vs veh, CARD8 / RFU, STRN3 / Fold change vs veh, STRN3 / RFU, ADK / Fold change vs veh, ADK / RFU, RASSF2 / Fold change vs veh, RASSF2 / RFU, WIPF1 / Fold change vs veh, WIPF1 / RFU, LARP1B / Fold change vs veh, LARP1B / RFU, RASA1 / Fold change vs veh, RASA1 / RFU, RB1 / Fold change vs veh, RB1 / RFU, PPFIA1 / Fold change vs veh, PPFIA1 / RFU, MAT2A / Fold change vs veh, MAT2A / RFU, CCT5 / Fold change vs veh, CCT5 / RFU, WDR92 / Fold change vs veh, WDR92 / RFU, CUX1 / Fold change vs veh, CUX1 / RFU, TTC7A / Fold change vs veh, TTC7A / RFU, TMEM135 / Fold change vs veh, TMEM135 / RFU, DEPTOR / Fold change vs veh, DEPTOR / RFU, CPM / Fold change vs veh, CPM / RFU, DNAJB6 / Fold change vs veh, DNAJB6 / RFU, CACNA2D3 / Fold change vs veh, CACNA2D3 / RFU, DTX4 / Fold change vs veh, DTX4 / RFU, TFCP2 / Fold change vs veh, TFCP2 / RFU, GMCL1 /// GMCL1P1 / Fold change vs veh, GMCL1 /// GMCL1P1 / RFU, AEBP2 / Fold change vs veh, AEBP2 / RFU, SNHG1 /// SNORD22 /// SNORD25 /// SNORD26 /// SNORD27 /// SNORD28 /// SNORD29 /// SNORD31 / Fold change vs veh, SNHG1 /// SNORD22 /// SNORD25 /// SNORD26 /// SNORD27 /// SNORD28 /// SNORD29 /// SNORD31 / Fold change (Aza/veh), C12orf56 (ProbeSet 11735607_a_at) / Fold change (ACY-1035/veh), C12orf56 (ProbeSet 11735607_a_at) / Fold change (Aza/veh), FGFR1OP (ProbeSet 11751329_s_at) / Fold change (ACY-1035/veh), FGFR1OP (ProbeSet 11751329_s_at) / Fold change (Aza/veh), VPS36 (ProbeSet 11739960_a_at) / Fold change (ACY-1035/veh), VPS36 (ProbeSet 11739960_a_at) / RFU SYPL1 (11715823_x_at) / Fold change /veh SYPL1 (11715823_x_at) / RFU IGFBP7 (11715501_s_at) / Fold change /veh IGFBP7 (11715501_s_at) / RFU REEP3 (11722064_at) / Fold change /veh REEP3 (11722064_at) / RFU IGLL1 (11728026_x_at) / Fold change /veh IGLL1 (11728026_x_at): dose or concentration left out as unconfirmed
Details: ProbeSet 11723930_at; LIST D

Nc1ccc(-c2cccs2)cc1NC(=O)c1ccc2c(c1)cc(C1CC1)n2CCN1CCOCC1 [ACY-1035]
Fold change vs veh, CCT5: 0.85
